Reference: publication PMC10349828, “Mechanistic investigation of a D to N mutation in DAHP synthase that dictates carbon flux into the shikimate pathway in yeast” (Communications Chemistry, 2023)

How the values were obtained:
Aro3 [1] = target: T1, Aro3 (Saccharomyces cerevisiae, UniProt P14843, D154N); assay: DAHP formation, periodate-thiobarbituric acid assay at […] nm; type: biochemical; settings: read-out: % remaining activity at 10 mM
T1 construct: full-length ORF in pET21, C-terminal His6 tag, expressed in E. coli Rosetta 2 (DE3); Ni-NTA and gel filtration; dimer in crystal

Aro3 [2] = target: T2, Aro3 (Saccharomyces cerevisiae, UniProt P14843, K222L); assay: as above; type: biochemical; settings: read-out: % inhibition at 0.1 mM
T2 construct: full-length ORF in pET21, C-terminal His6 tag, expressed in E. coli Rosetta 2 (DE3); Ni-NTA and gel filtration; dimer in crystal

Aro3 [3] = target: T3, Aro3 (Saccharomyces cerevisiae, UniProt P14843); assay: as above; type: biochemical; settings: read-out: % inhibition at 0.1 mM
T3 construct: full-length ORF in pET21, C-terminal His6 tag, expressed in E. coli Rosetta 2 (DE3); Ni-NTA and gel filtration; dimer in crystal

Aro3 [4] = target: T3, Aro3; assay: isothermal titration calorimetry; type: binding
Aro3 [5] = target: T1, Aro3; assay: isothermal titration calorimetry; type: binding

T3 sequence (P14843 whole entry): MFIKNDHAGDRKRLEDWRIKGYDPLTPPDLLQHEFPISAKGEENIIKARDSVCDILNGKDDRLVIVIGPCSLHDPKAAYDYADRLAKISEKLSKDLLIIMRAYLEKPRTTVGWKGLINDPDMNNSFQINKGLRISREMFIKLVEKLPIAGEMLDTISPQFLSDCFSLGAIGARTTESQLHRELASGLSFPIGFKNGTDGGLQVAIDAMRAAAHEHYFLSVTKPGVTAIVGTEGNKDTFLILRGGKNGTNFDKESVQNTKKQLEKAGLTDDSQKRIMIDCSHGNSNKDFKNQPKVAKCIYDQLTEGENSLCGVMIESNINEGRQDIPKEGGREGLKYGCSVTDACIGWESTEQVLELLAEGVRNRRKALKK
T1 sequence (P14843 whole entry D154N): as the sequence (P14843 whole entry) above, with D154N counted along it
T2 sequence (P14843 whole entry K222L): as the sequence (P14843 whole entry) above, with K222L counted along it

N[C@@H](Cc1ccccc1)C(=O)O [L-Phe]
remaining activity at 10000 µM (Aro3 [1]): 71.2% | inhibition at 100 µM (Aro3 [2]): ~50% | inhibition at 100 µM (Aro3 [3]): ~50% | Kd (Aro3 [4]): 31.4 µM | Kd (Aro3 [5]): 336 ± 31.2 µM
